Values after ≈ are worked out from the molar mass of the structure shown. Where two headings read alike, the source gives them in different places.
Assays:
[1] = test system: Clostridium difficile ATCC 43255; test: Susceptibility of Clostridium difficile, agar dilution MIC; type: cell-based; conditions: Clostridioides difficile, ATCC43255, anaerobic
In short: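 Agar dilution per CLSI M11-A8 on supplemented Brucella agar containing compound dilutions. Inoculum from 0.5 McFarland suspension, 1-2 μL spots; anaerobic incubation at 36° C for 42 to 48 hours. MIC read by eye as the concentration giving marked growth reduction versus compound-free anaerobic control plates.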

[2] = Oral bioavailability (BA) in monkeys; type: in vivo, Macaca fascicularis; conditions: male, cynomolgus monkey, blood, 1 mg/kg oral vs jugular vein
Description: To male Macaca fascicularis (3 or 4 year-old) fasted overnight, a solution of the test compound Captisol® was administered into the jugular vein (3 animals) and a solution of Lutrol® F68 was orally administered (3 animals). The dose of both test compounds was 1 mg/kg body weight of the monkey. The amount of Captisol® used was 0.18 mg/kg body weight of the monkey. The amount of Lutrol® F68 used was 0.02 mg/kg body weight of the monkey. The BA value was calculated by the formula below using the integration value (AUCiv(0-∞)) of the blood concentration extrapolated from time 0 to infinity after administration of both test compounds. BA(%)=[[(AUCpo(0-∞))/(dose po)]/[(AUCiv(0-∞))/(dose iv)]]×100 The greater a BA value of the compound shown, the higher the oral bioavailability is.

[3] = molecular target: Clostridium difficile DNA gyrase (Clostridioides difficile, UniProt Q18C89); test: DNA supercoiling inhibition assay; type: biochemical; conditions: supercoiling of relaxed pBR322 DNA, 60 minutes at 37° C.
In short: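 Relaxed pBR322 (400 ng) supercoiled by C. difficile gyrase for 60 min at 37 °C in Tris-HCl pH 7.5 with 6 mM MgCl2, 70 mM KCl, compounds added from 20% DMSO. Products resolved on 1.0% agarose, EtBr-stained; supercoiled band intensity quantified and IC50 fitted.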

S. aureus ATCC 29213 = test: Susceptibility of bacteria, broth microdilution MIC; type: cell-based; conditions: Staphylococcus aureus, ATCC29213
In short: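 CLSI M7-A7 broth microdilution with 2-fold serial compound dilutions; inoculum from 0.5 McFarland suspension diluted 10-fold, 4 μL per well. Incubated 35 °C for about 20 h; MIC is the lowest concentration preventing visible growth.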

[4] = Solubility in water (JP1 / JP2 fluids); type: physicochemical; conditions: thermodynamic from solid
In short: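 DMSO stock (10 mmol/L) dried down, residue shaken 30 min in JP1 or JP2 fluid after 1 min sonication, then held 1 h dark at room temperature. Filtrate diluted and quantified by UPLC against 100 and 5 μmol/L standards.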

[5] = Oral bioavailability (BA) in rats; type: in vivo; conditions: male, SD, blood; Rat, 2 mg/kg oral vs jugular vein
Description: To SD male rats (7 week-old) fasted overnight, a solution of the test compound Captisol® was administered into the jugular vein (3 animals) and a solution of Lutrol® F68 was administered orally (3 animals). The dose of the test compounds was 2 mg/kg body weight of the rat for both administration routes. The amount of Captisol® used was 0.36 mg/kg body weight of the rat. The amount of Lutrol® F68 used was 0.02 mg/kg body weight of the rat. The BA value was calculated by the formula below using the integration value (AUCiv(0-∞)) of the blood concentration extrapolated from time 0 to infinity after administration of both test compounds. The greater a BA value of the compound shown, the higher the oral bioavailability is.

[6] = Japanese Pharmacopeia First Fluid (JP1), pH 1.2, simulated gastric fluid, read-out: Solubility JP1
[7] = Japanese Pharmacopeia Second Fluid (JP2), pH 6.8, aqueous buffer, read-out: Solubility JP2

Chain of Clostridium difficile DNA gyrase (Q18C90 entry or part of it): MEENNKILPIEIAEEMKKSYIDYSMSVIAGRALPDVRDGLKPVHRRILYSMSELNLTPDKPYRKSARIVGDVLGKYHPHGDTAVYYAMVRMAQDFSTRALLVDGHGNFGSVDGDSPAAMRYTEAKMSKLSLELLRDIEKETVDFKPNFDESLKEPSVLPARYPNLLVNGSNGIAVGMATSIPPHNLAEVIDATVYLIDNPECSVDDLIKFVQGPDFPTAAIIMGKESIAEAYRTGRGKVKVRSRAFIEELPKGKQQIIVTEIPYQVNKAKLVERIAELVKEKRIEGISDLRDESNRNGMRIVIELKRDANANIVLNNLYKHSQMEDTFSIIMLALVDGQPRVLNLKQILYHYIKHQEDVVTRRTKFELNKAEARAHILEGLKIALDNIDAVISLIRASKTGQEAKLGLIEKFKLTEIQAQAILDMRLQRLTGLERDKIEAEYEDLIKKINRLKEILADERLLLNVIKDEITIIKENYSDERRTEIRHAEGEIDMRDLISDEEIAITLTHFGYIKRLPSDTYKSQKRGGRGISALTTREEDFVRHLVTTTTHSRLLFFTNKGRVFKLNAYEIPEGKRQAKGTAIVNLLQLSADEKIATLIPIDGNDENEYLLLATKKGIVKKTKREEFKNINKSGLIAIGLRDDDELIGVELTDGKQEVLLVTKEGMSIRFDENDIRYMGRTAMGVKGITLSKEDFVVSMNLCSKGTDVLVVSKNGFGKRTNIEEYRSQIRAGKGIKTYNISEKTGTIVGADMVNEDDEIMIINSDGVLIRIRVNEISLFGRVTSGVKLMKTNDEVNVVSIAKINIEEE
Chain of Clostridium difficile DNA gyrase (Q18C89 entry or part of it): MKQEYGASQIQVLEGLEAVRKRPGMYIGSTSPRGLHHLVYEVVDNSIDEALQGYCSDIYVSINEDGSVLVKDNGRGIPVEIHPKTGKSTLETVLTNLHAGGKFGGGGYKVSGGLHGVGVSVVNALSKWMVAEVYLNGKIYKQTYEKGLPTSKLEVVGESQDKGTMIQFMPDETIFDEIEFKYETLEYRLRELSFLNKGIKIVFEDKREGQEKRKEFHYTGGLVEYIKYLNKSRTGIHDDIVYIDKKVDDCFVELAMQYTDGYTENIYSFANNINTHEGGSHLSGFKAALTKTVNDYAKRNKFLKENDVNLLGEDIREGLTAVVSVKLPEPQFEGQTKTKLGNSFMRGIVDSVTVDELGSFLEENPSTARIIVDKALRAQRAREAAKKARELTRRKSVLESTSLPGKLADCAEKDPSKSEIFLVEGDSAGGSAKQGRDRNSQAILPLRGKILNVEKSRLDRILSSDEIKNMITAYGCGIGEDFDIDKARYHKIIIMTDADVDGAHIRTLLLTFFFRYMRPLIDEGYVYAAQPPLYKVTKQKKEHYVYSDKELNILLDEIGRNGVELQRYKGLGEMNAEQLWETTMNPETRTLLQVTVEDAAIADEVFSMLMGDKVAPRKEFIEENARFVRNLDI

Compound: CCc1[nH]c(C(=O)N[C@@H]2CCN(c3nnc(C(C)(C)O)s3)C[C@@H]2OC)nc1Cl [Compound No. 2, 4-Chloro-5-ethyl-N-{(3S,4R)-1-[5-(2-hydroxypropan-2-yl)-1,3,4-thiadiazol-2-yl]-3-methoxypiperidin-4-yl}-1H-imidazole-2-carboxamide]
- MIC [1]: 0.06 µg/mL (≈ 0.14 µM)
- bioavailability [2]: 85%
- IC50 [3]: 46.6 nM
- MIC (S. aureus ATCC 29213): 0.25 µg/mL (≈ 0.583 µM)
- solubility at 30 min [4, 6]: 706 µg/mL (≈ 1650 µM)
- solubility at 30 min [4, 7]: 256 µg/mL (≈ 597 µM)
- bioavailability [5]: 98%

Compound: CCc1[nH]c(C(=O)N[C@@H]2CCN(c3nnc([C@H](C)O)s3)C[C@@H]2OC)nc1Cl (single isomer, unassigned) [Compound No. 5]
- MIC [1]: 0.125 µg/mL (≈ 0.301 µM)
- bioavailability [2]: 100%
- IC50 [3]: 21.7 nM
- MIC (S. aureus ATCC 29213): 0.5 µg/mL (≈ 1.21 µM)
- solubility at 30 min [4, 6]: 680 µg/mL (≈ 1640 µM)
- solubility at 30 min [4, 7]: 359 µg/mL (≈ 865 µM)
- bioavailability [5]: 60%

— patent US10399968B2, “Hydroxyalkyl thiadiazole derivatives” (Daiichi Sankyo Company, Limited, priority 2015, dated 2019)
